In article PMC11573166, “Sodium-dependent glucose co-transport proteins (SGLTs) are not involved in human glucose taste detection” (PLOS ONE, 2024) one finds EC50 data, which are given here for one molecule.

In the test the target is T1, human SGLT1 (hSGLT1) (Homo sapiens, UniProt P13866).
T1 construct: gene SLC5A1; Full length human SGLT1 (NP_000334)
T1 sequence (P13866 1-664): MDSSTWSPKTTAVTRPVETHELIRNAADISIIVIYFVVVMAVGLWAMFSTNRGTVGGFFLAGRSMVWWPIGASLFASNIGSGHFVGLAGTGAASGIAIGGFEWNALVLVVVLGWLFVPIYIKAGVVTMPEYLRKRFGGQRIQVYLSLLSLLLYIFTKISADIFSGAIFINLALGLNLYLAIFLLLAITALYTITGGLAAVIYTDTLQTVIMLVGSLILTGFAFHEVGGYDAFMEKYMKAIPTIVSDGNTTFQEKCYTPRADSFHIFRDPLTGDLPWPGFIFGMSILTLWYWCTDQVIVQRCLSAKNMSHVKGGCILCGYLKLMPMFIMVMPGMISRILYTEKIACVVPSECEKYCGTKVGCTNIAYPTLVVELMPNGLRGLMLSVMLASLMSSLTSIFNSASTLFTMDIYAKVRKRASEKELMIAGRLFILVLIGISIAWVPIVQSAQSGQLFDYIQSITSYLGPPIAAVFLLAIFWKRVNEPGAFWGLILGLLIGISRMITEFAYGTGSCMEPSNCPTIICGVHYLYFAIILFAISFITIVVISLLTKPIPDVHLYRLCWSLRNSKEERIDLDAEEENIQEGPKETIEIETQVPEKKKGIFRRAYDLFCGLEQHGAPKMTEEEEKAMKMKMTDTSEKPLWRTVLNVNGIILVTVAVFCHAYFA
Briefly: FLIPR membrane potential assay in CHO cells transiently expressing hSGLT1; mock-transfected cells did not respond. It counts as cell-based.

The term EC50 denotes the midpoint of the concentration-response curve. A higher EC50 goes with lower potency in that assay. Molecule `OC[C@H]1OC(O)[C@H](O)[C@@H](O)[C@@H]1O` (stereo partly drawn) [D-glucose] had an EC50 of 452 µM.
